According to patent US20090258069A1, “Delivery of LFA-1 antagonists to the gastrointestinal system” (priority 2008, published 2009):
Where two headings read alike, the source gives them in different places.

Assays:
[1] = Pilot ocular tolerance of topically administered Compound 12 in dogs-PK; format: in vivo, dog; conditions: dog, vitreous fluid, topical; TID for three days with 3.5 mg/eye (10%); ranged from BLOQ; read-out: levels in the vitreous fluid
[2] = test system: dogs; assay: as above; format: in vivo, dog; conditions: up to 10% strength at 3 doses/day
[3] = Plasma PK in rats after a single IV bolus dose; format: in vivo, rat; conditions: for AUC: read-out: AUC0-n
[4] = Solubility studies; format: physicochemical
[5] = 30.0 mg/kg single IV bolus, from rat safety pharmacology study
[6] = rat, 10.0 mg/kg single IV bolus

**Q.** With `CS(=O)(=O)c1cccc(C[C@H](NC(=O)c2c(Cl)cc3c(c2Cl)CCN(C(=O)c2ccc4ccoc4c2)C3)C(=O)O)c1` [Compound 12] as the compound, how does the concentration at 3 days [1] read?
**A.** ≤ 18 ng/mL

**Q.** And the “ocular safety and tolerability” value [2]?
**A.** safe and well tolerated

**Q.** What about the Cmax [3, 5] of the same compound?
**A.** 5120 ng/mL

**Q.** And the AUC [3, 5]?
**A.** 2350 ng·h/mL

**Q.** What about the Cmax [3, 6] of the same compound?
**A.** 1060 ng/mL

**Q.** And the MRT [3, 6]?
**A.** 0.92 h

**Q.** What about the clearance [3, 6] of the same compound?
**A.** 173 mL/min/kg

**Q.** And the half-life [3, 6]?
**A.** 3.76 h

**Q.** What about the AUC [3, 6] of the same compound?
**A.** 728 ng·h/mL

**Q.** What about the Vd ([3]; rat, 10.0 mg/kg single IV bolus, read-out: Vss) of the same compound?
**A.** 9.56 L/kg

**Q.** What about the solubility ([4]; ethanol/glycol/transcutol solution) of the same compound?
**A.** 10 % (w/w)

**Q.** What about the solubility ([4]; water/glycol/transcutol solution) of the same compound?
**A.** 2 % (w/w)
